The conditions of this data set: water; printed as 'approximately up to about'.

Counter-ions that a name gives are not always drawn.

Regarding `Cc1cc2c(s1)Nc1ccccc1N=C2N1CCN(C)CC1` [oxalic acid addition salt of olanzapine], the aqueous solubility entry is on record as “up to 800 mg/mL”.

The values above are taken from patent EP2292624A1, “Process for the purification of olanzapine” (LEK Pharmaceuticals d.d., priority 2009, dated 2011).
